This is an account of results in patent US12528784B2, “Alkynyl-(heteroaryl)-carboxamide HCN1 inhibitors” (Hoffmann-La Roche Inc., priority 2019, dated 2026).

The pIC50 is the negative decadic logarithm of the IC50, by convention in mol/L. Read a high pIC50 as a low IC50.

pIC50: −log10 of the molar value.

Type in all cases: cell-based
One assay addresses T1, HCN1 (Homo sapiens, UniProt O60741).
T1 construct: expressed in transfected cells
T1 sequence (O60741 1-890): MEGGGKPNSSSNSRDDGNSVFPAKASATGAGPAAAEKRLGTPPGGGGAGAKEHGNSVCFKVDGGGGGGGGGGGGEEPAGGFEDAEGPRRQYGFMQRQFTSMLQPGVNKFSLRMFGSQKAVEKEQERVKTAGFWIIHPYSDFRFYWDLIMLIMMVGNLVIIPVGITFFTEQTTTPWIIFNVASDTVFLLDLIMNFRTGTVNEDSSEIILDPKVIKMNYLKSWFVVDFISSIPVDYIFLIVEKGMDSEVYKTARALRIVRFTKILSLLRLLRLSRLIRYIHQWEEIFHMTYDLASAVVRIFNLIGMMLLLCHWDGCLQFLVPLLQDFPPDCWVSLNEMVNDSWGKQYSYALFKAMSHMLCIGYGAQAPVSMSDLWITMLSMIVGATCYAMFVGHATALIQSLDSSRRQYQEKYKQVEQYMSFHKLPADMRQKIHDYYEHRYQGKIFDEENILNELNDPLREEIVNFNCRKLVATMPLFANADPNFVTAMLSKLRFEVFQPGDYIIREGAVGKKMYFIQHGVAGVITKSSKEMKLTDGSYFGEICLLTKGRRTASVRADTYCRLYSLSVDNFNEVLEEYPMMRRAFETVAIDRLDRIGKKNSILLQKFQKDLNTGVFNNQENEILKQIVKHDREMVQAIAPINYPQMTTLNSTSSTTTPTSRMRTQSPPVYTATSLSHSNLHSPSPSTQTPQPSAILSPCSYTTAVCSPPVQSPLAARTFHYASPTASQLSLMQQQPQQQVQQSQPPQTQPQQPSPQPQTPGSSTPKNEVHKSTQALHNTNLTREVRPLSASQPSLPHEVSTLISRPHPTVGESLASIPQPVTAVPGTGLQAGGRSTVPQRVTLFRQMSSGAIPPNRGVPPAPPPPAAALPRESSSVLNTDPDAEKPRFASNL
In words: HCN1 automated patch clamp current inhibition assay (Ionworks Barracuda). Particulars: HEK-293 cells stably expressing HCN1; current inhibition during a hyperpolarizing pulse of -100 mV. How it is done: (§1) In vitro, high-throughput cellular electrophysiology was employed to detect voltage- and use-dependence of compounds in single concentration screening and IC50 determination for library and medicinal chemistry profiling compounds in 384 well plates.
(§2) Cell cultures were maintained in DMEM/F12 cell growth media containing FBS and appropriate antibiotics at 37° C., 5% CO2 for a maximum of 20 passages. At a time point of 40-72 hours prior to assay, the expression of HCN protein in the cells is induced by addition of tetracyclin. Cells may be incubated at 27° C. for 2-24 hours of induction. […] Cells were harvested at 80% confluency and resuspended in extracellular buffer and added to wells. A freshly prepared Escin solution was added to intracellular buffer and applied to establish whole cell recording via perforated patch clampling by APC.
(§3) Currents through activated channels were measured directly by APC by employing hyperpolarizing voltage steps. The activation window was increased and stabilized by the addition of cell permeable Br-cAMP. Baselines were established for both use- and voltage-dependence protocols using a −30 mV holding potential and multiple test pulses at −100 mV or by 20 mV steps from −120 to 0 mV, respectively. Test compounds were added after baseline recordings followed by a 10 min incubation, voltage-dependency protocol recording, and use-dependency recording. Data was corrected for baseline and rundown (well based) and normalized for % inhibition (plate based). Five previously reported HCN inhibitors of varying potencies and selectivities and zatebradine were used for run to run and plate to plate quality controls. […] Percent inhibition was analysed at −80, −100, −120 mV of the voltage-dependency protocol and at pulse 0 and 50 of the use-dependency protocols. Selectivity was assessed against HCN2, HCN3, and HCN4 overexpressing cell lines using similar methods. As HCN4 has a slower activation than the other HCN channels, activation was extended to achieve steady state activation.

The target of a further assay is T2, HCN2 (Homo sapiens, UniProt Q9UL51).
T2 construct: expressed in transfected cells
T2 sequence (Q9UL51 1-889): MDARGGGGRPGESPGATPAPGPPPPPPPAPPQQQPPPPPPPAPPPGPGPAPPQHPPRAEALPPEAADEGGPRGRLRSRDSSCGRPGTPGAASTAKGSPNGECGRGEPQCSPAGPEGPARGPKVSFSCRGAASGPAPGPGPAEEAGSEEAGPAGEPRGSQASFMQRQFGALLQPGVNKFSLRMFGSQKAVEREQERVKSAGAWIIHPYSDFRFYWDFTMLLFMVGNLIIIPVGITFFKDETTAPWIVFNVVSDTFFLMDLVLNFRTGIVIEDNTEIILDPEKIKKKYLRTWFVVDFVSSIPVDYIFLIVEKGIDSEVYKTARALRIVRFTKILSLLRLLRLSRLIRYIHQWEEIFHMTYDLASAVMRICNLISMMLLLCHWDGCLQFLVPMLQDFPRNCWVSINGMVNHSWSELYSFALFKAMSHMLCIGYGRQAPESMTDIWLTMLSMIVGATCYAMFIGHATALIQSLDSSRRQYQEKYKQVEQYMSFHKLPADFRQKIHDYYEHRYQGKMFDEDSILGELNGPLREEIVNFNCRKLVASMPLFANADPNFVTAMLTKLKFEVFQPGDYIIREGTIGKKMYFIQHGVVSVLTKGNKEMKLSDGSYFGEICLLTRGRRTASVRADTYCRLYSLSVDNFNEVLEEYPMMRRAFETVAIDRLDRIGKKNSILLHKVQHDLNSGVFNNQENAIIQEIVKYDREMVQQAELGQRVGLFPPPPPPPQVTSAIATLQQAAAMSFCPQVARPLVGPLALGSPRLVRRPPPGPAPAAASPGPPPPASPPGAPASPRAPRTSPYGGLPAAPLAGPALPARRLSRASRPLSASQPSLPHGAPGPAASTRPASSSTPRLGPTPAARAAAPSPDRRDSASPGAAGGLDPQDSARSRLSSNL
In words: HCN2 automated patch clamp current inhibition assay (Ionworks Barracuda). The following applies: HEK-293 cells stably expressing HCN2; current inhibition during a hyperpolarizing pulse of -100 mV. How it is done:
as §1, §2, §3
For orientation: The patch-clamp technique gives a direct electrical read-out from membranes.

Another assay addresses T3, HCN4 (Homo sapiens, UniProt Q9Y3Q4).
T3 construct: expressed in transfected cells
T3 sequence (Q9Y3Q4 1-1203): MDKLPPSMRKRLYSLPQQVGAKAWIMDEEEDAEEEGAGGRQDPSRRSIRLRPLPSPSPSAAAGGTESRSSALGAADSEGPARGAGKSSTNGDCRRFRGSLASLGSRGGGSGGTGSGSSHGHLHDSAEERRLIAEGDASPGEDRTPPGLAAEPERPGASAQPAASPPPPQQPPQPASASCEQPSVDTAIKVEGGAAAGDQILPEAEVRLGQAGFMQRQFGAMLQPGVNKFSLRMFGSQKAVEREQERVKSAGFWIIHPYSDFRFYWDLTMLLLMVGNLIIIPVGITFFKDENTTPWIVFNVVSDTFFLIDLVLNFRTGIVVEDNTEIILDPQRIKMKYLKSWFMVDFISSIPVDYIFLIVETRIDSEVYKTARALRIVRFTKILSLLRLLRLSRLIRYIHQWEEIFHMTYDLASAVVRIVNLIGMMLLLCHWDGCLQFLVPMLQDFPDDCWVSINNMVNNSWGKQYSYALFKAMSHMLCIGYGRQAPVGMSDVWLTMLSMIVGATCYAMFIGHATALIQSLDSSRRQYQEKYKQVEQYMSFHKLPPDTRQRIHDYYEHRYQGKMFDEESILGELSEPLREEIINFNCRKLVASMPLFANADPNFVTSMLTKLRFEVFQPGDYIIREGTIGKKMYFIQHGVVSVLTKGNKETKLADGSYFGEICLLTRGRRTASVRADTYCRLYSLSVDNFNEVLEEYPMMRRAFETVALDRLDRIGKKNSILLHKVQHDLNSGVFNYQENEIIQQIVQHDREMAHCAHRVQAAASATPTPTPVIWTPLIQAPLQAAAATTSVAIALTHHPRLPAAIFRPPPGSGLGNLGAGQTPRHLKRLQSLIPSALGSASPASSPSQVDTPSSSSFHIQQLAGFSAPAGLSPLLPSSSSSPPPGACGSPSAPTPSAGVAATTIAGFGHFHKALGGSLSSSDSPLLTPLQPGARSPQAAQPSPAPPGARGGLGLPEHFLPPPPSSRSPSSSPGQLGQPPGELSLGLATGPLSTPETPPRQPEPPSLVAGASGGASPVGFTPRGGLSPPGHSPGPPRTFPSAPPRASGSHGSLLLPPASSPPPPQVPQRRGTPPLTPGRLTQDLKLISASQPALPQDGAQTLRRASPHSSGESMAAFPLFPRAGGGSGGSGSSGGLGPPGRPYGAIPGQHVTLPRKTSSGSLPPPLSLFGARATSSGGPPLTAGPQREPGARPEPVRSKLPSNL
In words: HCN4 automated patch clamp current inhibition assay (Ionworks Barracuda). The following applies: HEK-293 cells stably expressing HCN4; current inhibition during a hyperpolarizing pulse of -100 mV. Here is the method: as §1, §2, §3

On to `Cc1ccc(-n2c(C(N)=O)nc(C#Cc3cc(Cl)ncc3F)c2C)cn1` [Example 7, 4-((2-Chloro-5-fluoropyridin-4-yl)ethynyl)-5-methyl-1-(6-methylpyridin-3-yl)-1H-imidazole-2-carboxamide], for which the figures for the pIC50 against HCN1, against HCN2 and at HCN4 were 6.53, less than 4.40 and less than 4.40, respectively.

`Cc1ccc(-n2c(C(N)=O)nc(C#Cc3ccc(Cl)cc3)c2C)cn1` [Example 9, 4-[2-(4-Chlorophenyl)ethynyl]-5-methyl-1-(6-methyl-3-pyridyl)imidazole-2-carboxamide]: the results for the pIC50 against HCN1, against HCN2 and against HCN4 were 6.29, less than 4.40 and less than 4.40, respectively.

For the molecule `Cc1ccc(-n2c(C(N)=O)nc(C#Cc3ccnc(C(F)(F)F)c3)c2C)cn1` [Example 11, 5-Methyl-1-(6-methylpyridin-3-yl)-4-((2-(trifluoromethyl)pyridin-4-yl)ethynyl)-1H-imidazole-2-carboxamide], the pIC50 at HCN1 is 6.08; at HCN2 it was less than 4.40; on HCN4, less than 4.40.

In the case of `Cc1ccc(-n2c(C(N)=O)nc(C#Cc3ccnc(F)c3)c2C)cn1` [Example 12, 4-[2-(2-Fluoro-4-pyridyl)ethynyl]-5-methyl-1-(6-methyl-3-pyridyl)imidazole-2-carboxamide], the negative logarithm of the IC50 (pIC50) at HCN1 was 6.00; on HCN2, less than 4.40; against HCN4, less than 4.40.

For the molecule `Cc1ccc(-n2c(C(N)=O)nc(C#Cc3ccnc(Cl)n3)c2C)cn1` [Example 15, 4-((2-Chloropyrimidin-4-yl)ethynyl)-5-methyl-1-(6-methylpyridin-3-yl)-1H-imidazole-2-carboxamide], the pIC50 on HCN1 was 5.62; at HCN2, less than 4.40; against HCN4 it was less than 4.40.

On to `Cc1ccc(-n2c(C(N)=O)nc(C#Cc3ccncc3F)c2C)cn1` [Example 16, 4-((3-Fluoropyridin-4-yl)ethynyl)-5-methyl-1-(6-methylpyridin-3-yl)-1H-imidazole-2-carboxamide], for which the pIC50 at HCN1 is 5.62; at HCN2 it was less than 4.40; at HCN4, less than 4.40.

As for `Cc1ccc(-n2c(C(N)=O)nc(C#Cc3cncc(Cl)c3)c2C)cn1` [Example 17, 4-[2-(5-Chloro-3-pyridyl)ethynyl]-5-methyl-1-(6-methyl-3-pyridyl)imidazole-2-carboxamide], the pIC50 at HCN1 was 5.52; on HCN2, less than 4.40; at HCN4 it was less than 4.40.

`Cc1ccc(-n2c(C(N)=O)nc(C#Cc3cc(Cl)ncn3)c2C)cn1` [Example 19, 4-((6-Chloropyrimidin-4-yl)ethynyl)-5-methyl-1-(6-methylpyridin-3-yl)-1H-imidazole-2-carboxamide]: the pIC50 against HCN1 is 5.19; on HCN4, less than 4.40.

`Cc1ccc(-n2c(C(N)=O)nc(C#Cc3cccnc3)c2C)cn1` [Example 20, 5-Methyl-1-(6-methyl-3-pyridyl)-4-[2-(3-pyridyl)ethynyl]imidazole-2-carboxamide]: the results for the pIC50 against HCN1, at HCN2 and at HCN4 were 5.07, less than 4.40 and less than 4.40, respectively.

As to `Cc1ccc(-n2c(C(N)=O)nc(C#Cc3ccnc(C)c3)c2C)cn1` [Example 22, 5-Methyl-1-(6-methylpyridin-3-yl)-4-((2-methylpyridin-4-yl)ethynyl)-1H-imidazole-2-carboxamide], the pIC50 was 5.22 at HCN1, less than 4.40 on HCN2 and less than 4.40 on HCN4.

On to `Cc1ccc(-n2c(C(N)=O)nc(C#Cc3ccnc(Cl)c3C)c2C)nn1` [Example 24, 4-[2-(2-Chloro-3-methyl-4-pyridyl)ethynyl]-5-methyl-1-(6-methylpyridazin-3-yl)imidazole-2-carboxamide], for which the figures for the negative logarithm of the IC50 (pIC50) on HCN1, against HCN2 and on HCN4 were 6.82, less than 4.40 and less than 4.40, respectively.

Turning to `Cc1c(Cl)cccc1C#Cc1nc(C(N)=O)n(-c2cccnc2)c1C` [Example 30, 4-[2-(3-Chloro-2-methyl-phenyl)ethynyl]-5-methyl-1-(3-pyridyl)imidazole-2-carboxamide], the negative-log IC50 (pIC50) against HCN1 is 7.06; against HCN4, less than 4.40.
